# Source: US20240343699A1, “DERIVATIVES OF SUBSTITUTED MORPHOLINES AND USES THEREOF” (Supernus Pharmaceuticals, Inc., priority 2023, published 2024)
# Several values for one entry are separate records, joined by “and”; a condition that tells them apart may be missing. Identical values can stand only once. Like-named read-outs stand apart in the source and are kept apart here.
# How the values were obtained:
# [1] = Protein binding in CD-1 mouse plasma (equilibrium dialysis); settings: dialysis conditions; no binding reported
# [2] = Metabolic stability in rat liver S9; assay type: in vitro ADME, Sprague Dawley rat; design: half-life: dose or concentration left out as unconfirmed; settings: for half-life: Sprague Dawley (rat), rat, dog and human liver S9 incubations (summary over species), read-out: half-lives; for half-life / half-life at 1 μM / microsomal CLint at 1 μM: pH 7.2
# Protocol: Incubation Buffer (PBK): 50 mM potassium phosphate buffer was prepared from 1 M potassium phosphate buffer, pH 7.2. […] The dilution of […] was prepared by 90% methanol/10% DMSO, then 10 μM working solutions were prepared by diluting the 0.1 mM intermediates with 50 mM PBK. […] Prior to use, the stock solutions were brought to room temperature and thoroughly mixed. […] Cofactors Solutions: the mixture of cofactors solution was made at 10 mM of NADPH and 10 mM of UDPGA in PBK buffer.
# The incubation was carried out in 96-well plates. The liver S9 working solutions were added to 96-well plates (80 μL/well) in duplicate. […] Reaction was initiated by adding cofactor mixture 10 μL/well. The plates were incubated at 37° C. in a water bath with shaking. […] The final organic solvent content in the incubation was ≤1%.
# At specified time points, i.e., 5, 10, 20, 30 and 60 minutes, NCF60 (without adding NADPH (Nicotinamide-adenine dinucleotide phosphate, reduced form) and UDPGA (Uridine 5′-diphosphoglucuronic acid trisodium salt) replaced with PBK buffer reaction was stopped by adding three volumes of stop solution. The time zero (To) samples were prepared by adding three volumes of stop solution to liver S9 samples, followed by addition of test article or control, and cofactor mixture solution 10 μL/well.
# Subsequently, 100 μL of supernatant.
# Positive controls: 7-ethoxycoumarin and 7-hydroxycoumarin.
# [3] = Cellular and nuclear receptor functional assays; assay type: cell-based; settings: human recombinant (CHO cells); for Kb: apparent dissociation constant, modified Cheng Prusoff equation, read-out: kB, 5-HT2B(h) (antagonist effect); for IC50: serotonin (30 nM), IP1, HTRF, read-out: IC50, 5-HT2B(h) (antagonist effect)
# Protocol: A study was conducted to test 5 compounds in cellular and nuclear receptor functional and enzyme and uptake assays.
# The results are expressed as a percent of control agonist response or inverse agonist response and as a percent inhibition of control agonist response
# The EC50 values (concentration producing a half-maximal response) and IC50 values (concentration causing a half-maximal inhibition of the control agonist response) were determined by non-linear regression analysis of the concentration-response curves generated with mean replicate values using Hill equation curve fitting […]
# where Y=response, A=left asymptote of the curve, D=right asymptote of the curve, C=compound concentration, and C50=EC50 or IC50, and nH=slope factor. This analysis was performed using software developed at Cerep (Hill software) and validated by comparison with data generated by the commercial software SigmaPlot® 4.0 for Windows® (© 1997 by SPSS Inc.).
# For the antagonists, the apparent dissociation constants (KB) were calculated using the modified Cheng Prusoff equation where A=concentration of reference agonist in the assay, and EC50A=EC50 value of the reference agonist.
# In Vitro Pharmacology. Results showing an inhibition (or stimulation for assays run in basal conditions) higher than 50% were considered to represent significant effects of the test compounds. Results showing an inhibition (or stimulation) between 25% and 50% are indicative of weak to moderate effects. Results showing an inhibition (or stimulation) lower than 25% were not considered significant and mostly attributable to variability of the signal around the control level.
# behavioral signature = assay: SmartCube phenotypic screening (class/subclass and DRFA similarity analysis); assay type: in vivo, male C57/B16 mice; settings: for Subclass signature: COMPOUND A 30-120 mg/kg, COMPOUND B 90 and 120 mg/kg PO; for proximity to donepezil / proximity to thioperamide: DRFA dose by dose, maximum (COMPOUND A: 90 and 120 mg/kg)
# Protocol: A study was conducted to evaluate the CNS-like efficacy of novel test compounds using the SmartCube® System.
# Animals. Male C57/B16 mice from Taconic Laboratories (Germantown, NY) were used. Upon receipt, mice were group-housed in OPTIMice® ventilated cages with 4 mice per cage. Mice were acclimated to the colony room for at least one week prior to test, and subsequently tested at approximately 8-9 weeks of age. All animals were examined, handled, and weighed prior to initiation of the study to assure adequate health and suitability and to minimize nonspecific stress associated with manipulation. During the course of the study, 12/12 light/dark cycles were maintained. The room temperature was 20-23° C. with a relative humidity maintained between 30-70%. Chow and water were provided ad libitum for the duration of the study.
# Test compounds. All compounds were administered orally at a dose volume of 10 mL/kg, 20 minutes prior to testing. Formulations were prepared fresh on day of testing and dosing was completed within one hour of formulation. Compounds were prepared according to the table below. Twelve mice were used in each treatment group:
# SmartCube®. The SmartCube® system is designed to and can successfully measure numerous spontaneous behaviors and response to challenges in the same testing environment. The hardware includes force sensors and a number of aversive stimuli to elicit behavior. Three high-resolution video cameras provide constant 3D view of the mouse in the SmartCube® apparatus (SC) throughout the entire testing period. During the 45-minute test session the mice are exposed to a sequence of challenges. The cubes are cleaned between each run.
# Digital videos of the subjects were processed through computer segmentation algorithms to fit geometrical models to each mouse frame image. The resulting fitted parameters were then analyzed using behavioral classifier algorithms to extract behavioral states, such as rearing, locomotion, and immobility. The data obtained in this way was used to define a drug signature for PGI's known reference compounds and establish a therapeutic class signature against which a test sample can be compared.
# The data mining effort utilizes several analytical methods including Bayesian probabilistic density models and Decision trees. The algorithms consider ˜2,600 measures including frequency and duration of behavioral states such as grooming, rearing, etc., and many other features obtained during the test session.
# Two major types of analyses are routinely conducted: Class and subclass.
# Each reference drug was tested at multiple doses appropriate for that drug in mice.
# Multiple analyses of the data were performed to quantitatively produce independent predictions of drug class, and drug subclass. The behavioral signatures of the test drugs were evaluated using these classifiers to predict potential therapeutic utility.
# The results for the class and subclass analyses are presented as standardized bar charts with percentages that sum to 100 for each dose.
# Similarity Analysis Using “Clouds Framework”. The outcome from SmartCube® is a large set of features (behavioral parameters) that can be used for various analyses. […] Therefore, we formed statistically independent combinations of the original features (further referred to as de-correlated features). Each de-correlated feature extracted information from the whole cluster of the original features, so the new feature space would have lower dimensionality. Next, we applied a proprietary feature ranking algorithm to score each feature for its discrimination power (ability to separate the two groups, e.g. vehicle from treatment). Ranking is an important part of our analyses because it weighs each feature change by its relevance. We applied a feature ranking algorithm, derived from support vector in the support vector machine learning method, to rank each feature.
# [4] = Sprague Dawley, rat liver S9, 1 μM
# [5] = Sprague Dawley, rat liver S9, 1 μM, read-out: CLint(LS9)
# [6] = rat liver S9, 1 μM, NCF60 (no cofactors, 60 min)
# [7] = 1 μM in SD Rat liver S9 fractions
# [8] = Sprague-Dawley, 1 μM in SD Rat liver S9 fractions
# [9] = Sprague-Dawley, 1 μM in SD Rat liver S9 fractions, read-out: CLint(mic.)
smiles,measurement,setting,value
CCOc1ccccc1OC[C@@H]1CN(C(=O)OC(C)OC(=O)[C@@H](N)C(C)C)CCO1 (stereo partly drawn) [COMPOUND A],stability in the mouse plasma,[1],instability
same,half-life,[2],4 to 12 min
same,half-life at 1 μM,[2]; [4],8.61 min
same,microsomal CLint at 1 μM,[2]; [5],161 µL/min/mg
same,% Remaining,"[2]; rat liver S9, 1 μM, 0 min",100%
same,Analyte Peak area/IS Peak area Mean × 100 (n = 2),"[2]; rat liver S9, 1 μM, 0 min",10.7
same,% Remaining,"[2]; rat liver S9, 1 μM, 5 min",6.3%
same,Analyte Peak area/IS Peak area Mean × 100 (n = 2),"[2]; rat liver S9, 1 μM, 5 min",0.669
same,% Remaining,"[2]; rat liver S9, 1 μM, 10 min",5.4%
same,Analyte Peak area/IS Peak area Mean × 100 (n = 2),"[2]; rat liver S9, 1 μM, 10 min",0.574
same,% Remaining,"[2]; rat liver S9, 1 μM, 20 min",3.4%
same,Analyte Peak area/IS Peak area Mean × 100 (n = 2),"[2]; rat liver S9, 1 μM, 20 min",0.362
same,% Remaining,"[2]; rat liver S9, 1 μM, 30 min",1.6%
same,Analyte Peak area/IS Peak area Mean × 100 (n = 2),"[2]; rat liver S9, 1 μM, 30 min",0.171
same,% Remaining,"[2]; rat liver S9, 1 μM, 60 min",0.25%
same,Analyte Peak area/IS Peak area Mean × 100 (n = 2),"[2]; rat liver S9, 1 μM, 60 min",0.026
same,% Remaining,[2]; [6],2.2%
same,Analyte Peak area/IS Peak area Mean × 100 (n = 2),[2]; [6],0.237
same,Kb,[3],1 µM
same,IC50,[3],6.9 µM
same,behavioral activity (class/subclass analysis),behavioral signature; 30-120 mg/kg PO,high behavioral activity
same,Subclass signature,behavioral signature,predominantly cognitive enhancer-like
same,proximity to donepezil,behavioral signature,> 65%
same,proximity to thioperamide,behavioral signature,> 75%
CCOc1ccccc1OCC1CN(C(=O)OC(OC(=O)[C@@H](N)C(C)C)C(C)C)CCO1 (stereo partly drawn) [COMPOUND E],% Remaining at 60 min,[2]; [7],0.00%
same,half-life at 1 μM,[2]; [8],4.8 min
same,microsomal CLint at 1 μM,[2]; [9],290 µL/min/mg
same,Kb,[3],0.63 µM
same,IC50,[3],4.2 µM
same,behavioral activity (class/subclass analysis),behavioral signature; 40 and 80 mg/kg PO,moderate activity
CCOc1ccccc1OC[C@@H]1CN(C(=O)OC(OC(=O)[C@@H](N)C(C)C)C(C)C)CCO1 (stereo partly drawn) [COMPOUND B],stability in the mouse plasma,[1],instability
same,half-life,[2],4 to 12 min
same,half-life at 1 μM,[2]; [4],4.09 min
same,microsomal CLint at 1 μM,[2]; [5],339 µL/min/mg
same,% Remaining,"[2]; rat liver S9, 1 μM, 0 min",100%
same,Analyte Peak area/IS Peak area Mean × 100 (n = 2),"[2]; rat liver S9, 1 μM, 0 min",7.71
same,% Remaining,"[2]; rat liver S9, 1 μM, 5 min",6.8%
same,Analyte Peak area/IS Peak area Mean × 100 (n = 2),"[2]; rat liver S9, 1 μM, 5 min",0.524
same,% Remaining,"[2]; rat liver S9, 1 μM, 10 min",4.6%
same,Analyte Peak area/IS Peak area Mean × 100 (n = 2),"[2]; rat liver S9, 1 μM, 10 min",0.351
same,% Remaining,"[2]; rat liver S9, 1 μM, 20 min",2.3%
same,Analyte Peak area/IS Peak area Mean × 100 (n = 2),"[2]; rat liver S9, 1 μM, 20 min",0.174
same,% Remaining,"[2]; rat liver S9, 1 μM, 30 min",0.2%
same,Analyte Peak area/IS Peak area Mean × 100 (n = 2),"[2]; rat liver S9, 1 μM, 30 min",0.019
same,% Remaining,"[2]; rat liver S9, 1 μM, 60 min",0.08% and 0.1%
same,Analyte Peak area/IS Peak area Mean × 100 (n = 2),"[2]; rat liver S9, 1 μM, 60 min",0.006
same,% Remaining,[2]; [6],0.4%
same,Analyte Peak area/IS Peak area Mean × 100 (n = 2),[2]; [6],0.029
same,Kb,[3],2.1 µM
same,IC50,[3],14 µM
same,behavioral activity (class/subclass analysis),behavioral signature; 90 and 120 mg/kg PO,high behavioral activity
same,Subclass signature,behavioral signature,predominantly cognitive enhancer-like
CCOc1ccccc1OC[C@@H]1CN(C(=O)OC(OC(=O)[C@H](N)C(C)C)C(C)C)CCO1 (stereo partly drawn) [COMPOUND C],stability in the mouse plasma,[1],instability
same,half-life,[2],4 to 12 min
same,half-life at 1 μM,[2]; [4],8.53 min
same,microsomal CLint at 1 μM,[2]; [5],163 µL/min/mg
same,% Remaining,"[2]; rat liver S9, 1 μM, 0 min",100%
same,Analyte Peak area/IS Peak area Mean × 100 (n = 2),"[2]; rat liver S9, 1 μM, 0 min",6.55
same,% Remaining,"[2]; rat liver S9, 1 μM, 5 min",19%
same,Analyte Peak area/IS Peak area Mean × 100 (n = 2),"[2]; rat liver S9, 1 μM, 5 min",1.24
same,% Remaining,"[2]; rat liver S9, 1 μM, 10 min",13%
same,Analyte Peak area/IS Peak area Mean × 100 (n = 2),"[2]; rat liver S9, 1 μM, 10 min",0.834
same,% Remaining,"[2]; rat liver S9, 1 μM, 20 min",5.6%
same,Analyte Peak area/IS Peak area Mean × 100 (n = 2),"[2]; rat liver S9, 1 μM, 20 min",0.365
same,% Remaining,"[2]; rat liver S9, 1 μM, 30 min",3.5%
same,Analyte Peak area/IS Peak area Mean × 100 (n = 2),"[2]; rat liver S9, 1 μM, 30 min",0.228
same,% Remaining,"[2]; rat liver S9, 1 μM, 60 min",0.39% and 0.4%
same,Analyte Peak area/IS Peak area Mean × 100 (n = 2),"[2]; rat liver S9, 1 μM, 60 min",0.026
same,% Remaining,[2]; [6],3.5%
same,Analyte Peak area/IS Peak area Mean × 100 (n = 2),[2]; [6],0.228
same,Kb,[3],2 µM
same,IC50,[3],13 µM
same,behavioral activity (class/subclass analysis),behavioral signature; 60-150 mg/kg PO,high behavioral activity
same,proximity to donepezil,behavioral signature,around 100%
same,proximity to thioperamide,behavioral signature,around 100%
same,proximity to amphetamine,"behavioral signature; DRFA, active doses",> 75%
same,proximity to atomoxetine,"behavioral signature; DRFA, active doses",> 75%
same,class signature,behavioral signature; highest dose tested (150 mg/kg PO),predominant antipsychotic-like signature
CCOc1ccccc1OCC1CN(C(=O)OC(C)OC(=O)[C@H](N)C(C)C)CCO1 (stereo partly drawn) [COMPOUND D],% Remaining at 60 min,[2]; [7],0.48%
same,half-life at 1 μM,[2]; [8],9.4 min
same,microsomal CLint at 1 μM,[2]; [9],148 µL/min/mg
same,Kb,[3],0.75 µM
same,IC50,[3],4.9 µM
same,behavioral activity (class/subclass analysis),behavioral signature; 40 and 80 mg/kg PO,dose dependent increase in activity
